# Source: US20240173329A1, “BELVARAFENIB FOR USE IN TREATMENT OF BRAIN CANCERS” (Genentech, Inc., priority 2021, published 2024)
# Tests used:
# [1] = Brain to plasma ratio of belvarafenib, summary over mice and rats; assay type: in vivo; details: for Kp: mouse, rat, brain/plasma
# Protocol: Pharmacokinetic parameters of belvarafenib were calculated from plasma and brain concentration-time data by a non-compartmental method using Phoenix™ WinNonlin 8.1 (Certara, USA). The peak plasma and brain concentration (Cmax) and the corresponding time (Tmax) were directly obtained from the raw data. The area under the plasma curve (AUClast) was obtained by linear-log trapezoidal summation. Other PK parameters such as AUC from dosing time extrapolated to infinity (AUCinf), half-life (t1/2) and mean residence time (MTRlast) were calculated using WinNonlin. The plasma and brain concentrations of belvarafenib were presented as MEAN±S.D. The brain to plasma (B/P) ratio of Belvarafenib was calculated by dividing AUClast in the brain by AUClast in the plasma.
# The brain to plasma ratio is expressed in terms of B/P (nonclinical) defined as the percentage of brain exposure relative to plasma. The B/P for belvarafenib was determined experimentally according to the present disclosure and wherein the B/P of 93% is for mice and the B/P of 138% is for rats. The B/P for DAY101 is for mice was taken from Gampa, et al., “Brain Distribution and Active Efflux of Three pan-RAF Inhibitors: Considerations in the Treatment of Melanoma Brain Metastases”, J Pharmacol Exp Ther 368:446-461, March 2019. The B/P for dabrafenib is for mice and was taken from Mittapalli, et al., “Mechanisms Limiting Distribution of the Threonine-Protein Kinase B-RaFV600E Inhibitor Dabrafenib to the Brain: Implications for the Treatment of Melanoma Brain Metastases”, J Pharmacol Exp Ther 344:[…], 2013. The B/P for vemurafenib is for mice and was taken from Mittapalli, et al., “Impact of P-glycoprotein (ABCB1) and breast cancer resistance protein (ABCG2) on the brain distribution of a novel BRAF inhibitor: vemurafenib (PLX4032)”, J Pharmacol Exp Ther 342:33-40, 2013. […]
# EPHB2 = target: T1, EPHB2 (Homo sapiens, UniProt P29323); assay: panel of 189 kinase assays; assay type: biochemical
# T1 sequence (P29323 19-1055): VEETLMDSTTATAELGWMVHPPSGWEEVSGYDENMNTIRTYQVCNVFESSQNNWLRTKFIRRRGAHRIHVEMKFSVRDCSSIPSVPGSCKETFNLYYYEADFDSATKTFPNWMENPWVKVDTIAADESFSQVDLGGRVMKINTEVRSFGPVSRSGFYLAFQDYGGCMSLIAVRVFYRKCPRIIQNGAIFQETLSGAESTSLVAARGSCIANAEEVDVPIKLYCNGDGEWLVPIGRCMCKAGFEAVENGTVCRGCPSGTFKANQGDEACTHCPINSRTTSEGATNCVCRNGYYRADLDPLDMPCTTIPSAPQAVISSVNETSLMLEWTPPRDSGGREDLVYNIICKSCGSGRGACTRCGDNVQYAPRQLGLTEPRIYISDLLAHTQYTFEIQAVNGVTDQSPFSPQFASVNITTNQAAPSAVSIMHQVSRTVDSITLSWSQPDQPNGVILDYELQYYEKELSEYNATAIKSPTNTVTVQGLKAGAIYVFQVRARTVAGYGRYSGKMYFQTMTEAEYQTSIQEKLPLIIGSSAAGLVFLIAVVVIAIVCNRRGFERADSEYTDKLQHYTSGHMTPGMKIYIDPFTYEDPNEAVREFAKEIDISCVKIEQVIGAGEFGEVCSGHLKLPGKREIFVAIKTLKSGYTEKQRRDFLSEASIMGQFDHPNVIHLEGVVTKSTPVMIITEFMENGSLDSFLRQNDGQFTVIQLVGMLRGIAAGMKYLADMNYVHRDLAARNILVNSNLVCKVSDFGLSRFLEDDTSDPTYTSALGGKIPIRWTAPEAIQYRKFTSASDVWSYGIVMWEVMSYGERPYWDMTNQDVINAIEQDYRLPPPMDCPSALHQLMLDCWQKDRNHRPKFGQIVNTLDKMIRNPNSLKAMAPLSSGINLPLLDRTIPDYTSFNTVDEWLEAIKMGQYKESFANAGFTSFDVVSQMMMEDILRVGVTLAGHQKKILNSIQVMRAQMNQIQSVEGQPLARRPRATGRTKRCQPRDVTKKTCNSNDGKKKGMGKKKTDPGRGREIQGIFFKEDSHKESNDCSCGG
structure (smiles),measurement,setting,value
"Cc1ccc2c(Nc3cccc(Cl)c3F)nccc2c1NC(=O)c1csc2c(N)ncnc12 [Belvarafenib, 4-amino-N-(1-((3-chloro-2-fluorophenyl)amino)-6-methylisoquinolin-5-yl)thieno[3,2-d]pyrimidine-7-carboxamide]","B/P (nonclinical), percentage of brain exposure relative to plasma","[1]; 93% mice, 138% rats",93-138%
same,Kp,"[1]; oral, 30 mg/kg",0.8 to 1.2
same,Kp,"[1]; mice and rats, oral administration",~1
same,inhibition at 1 µM,EPHB2,> 90%
